As usually defined, the EC50 is the concentration at which the effect is half-maximal. High values mean a need for much substance, low ones an effect from little substance. For orientation: CC50 means the concentration giving 50% cytotoxicity.

This note sets out measurements from patent US10160743B2, “Sulphamoylthiophenamide derivatives and the use thereof as medicaments for the treatment of hepatitis B” (Janssen Sciences Ireland UC, priority 2013, dated 2018).

The test system of series [1] is HBV. Kind of series: Anti-HBV activity, HepG2.2.15 cell line, HBV DNA from secreted virions by realtime PCR. It counts as cell-based, Hepatitis B virus. The following applies: HepG2.2.15 cells, 6 days of treatment.
The nature of series [2]: Cytotoxicity in HepG2 cells, Resazurin assay. It counts as cell-based. The following applies: human, incubated for 4 days, Resazurin viability.
Series [3] deals with HBV. Kind of series: Anti-HBV activity, HepG2.117 cell line (Tet-off), intracellular HBV DNA by realtime PCR. In kind it is cell-based, Hepatitis B virus. Particulars: HepG2.117 cells, 3 days of treatment.
Where [4] appears, read: Hepatitis B virus, HepG2.2.15, 144 h.
The mark [5] stands for this setting: Hepatitis B virus, HepG2.117, 72 h.

In the case of `Cc1cc(NC(=O)c2cc(S(=O)(=O)NC3(C)CCOC3)sc2C)ccc1F` (racemic) [Compound 16, N-(4-fluoro-3-methyl-phenyl)-2-methyl-5-[(3-methyltetrahydrofuran-3-yl)sulfamoyl]thiophene-3-carboxamide], the EC50 with HBV [1] was determined as 54 nM; in the series on HBV [3], 48 nM. Moreover, the CC50 at 4 days in series [2] was over 25000 nM.
Turning to `Cc1sc(S(=O)(=O)NC2(C(F)(F)F)CCOC2)cc1C(=O)Nc1cccc(C(F)(F)F)c1` (racemic) [Compound 41, 2-methyl-N-[3-(trifluoromethyl)phenyl]-5-[[3-(trifluoromethyl)tetrahydrofuran-3-yl]sulfamoyl]thiophene-3-carboxamide], the concentration for a half-maximal effect (EC50) in the series with HBV [1] (setting [4]) was 550 nM; in the series with HBV [3] (setting [5]) it was over 1000 nM. The compound further came in with a 50% cytotoxic concentration (CC50) at 4 days in series [2] of over 25000 nM.
As to `Cc1sc(S(=O)(=O)NC2(C(F)(F)F)CCOC2)cc1C(=O)Nc1ccc(F)c(C#N)c1` (racemic) [Compound 54, N-(3-cyano-4-fluoro-phenyl)-2-methyl-5-[[3-(trifluoromethyl)tetrahydrofuran-3-yl]sulfamoyl]thiophene-3-carboxamide], the EC50 stood at 180 nM with HBV [1] (setting [4]) and 100 nM with HBV [3] (setting [5]). The 50% cytotoxic concentration (CC50) at 4 days in series [2] was over 25000 nM.
The matching figures for `Cc1cc(NC(=O)c2csc(S(=O)(=O)N[C@H]3CCOC3)c2)ccc1F` [Compound 1, N-(4-fluoro-3-methyl-phenyl)-5-[[(3S)-tetrahydrofuran-3-yl]sulfamoyl]thiophene-3-carboxamide]: 170 nM, 320 nM and over 25000 nM.
In the case of `Cc1cc(NC(=O)c2cc(S(=O)(=O)N[C@H]3CCOC3)sc2Br)ccc1F` [Compound 2, 2-bromo-N-(4-fluoro-3-methyl-phenyl)-5-[[(3S)-tetrahydrofuran-3-yl]-sulfamoyl]thiophene-3-carboxamide], the half-maximal effective concentration (EC50) with HBV [1] (setting [4]) is 810 nM; in the series on HBV [3] (setting [5]), 1900 nM. The CC50 at 4 days in series [2] was over 25000 nM.
For the compound `Cc1cc(NC(=O)c2cc(S(=O)(=O)N[C@H](C)CO)sc2Cl)ccc1F` [Compound 3, 2-chloro-N-(4-fluoro-3-methyl-phenyl)-5-[[(1R)-2-hydroxy-1-methyl-ethyl]sulfamoyl]thiophene-3-carboxamide], the half-maximal effective concentration (EC50) with HBV [1] (setting [4]) was determined as 210 nM; in the series with HBV [3] (setting [5]), 340 nM. The 50% cytotoxic concentration (CC50) at 4 days in series [2] was over 25000 nM.
The corresponding values for `Cc1cc(NC(=O)c2cc(S(=O)(=O)N[C@H]3CCOC3)sc2Cl)ccc1F` [Compound 4, 2-chloro-N-(4-fluoro-3-methyl-phenyl)-5-[[(3S)-tetrahydrofuran-3-yl]-sulfamoyl]thiophene-3-carboxamide] are 570 nM, 560 nM and over 25000 nM.
With `Cc1cc(NC(=O)c2cc(S(=O)(=O)N[C@H]3CCOC3)sc2C(F)(F)F)ccc1F` [Compound 5, N-(4-fluoro-3-methyl-phenyl)-5-[[(3S)-tetrahydrofuran-3-yl]sulfamoyl]-2-(trifluoromethyl)thiophene-3-carboxamide], the values for the EC50 with HBV [1] (setting [4]) and in the series with HBV [3] (setting [5]) were 1670 nM and 1180 nM, respectively. Moreover, in series [2], the half-maximal cytotoxic concentration (CC50) at 4 days was over 25000 nM.
The matching figures for `Cc1cc(NC(=O)c2cc(S(=O)(=O)N[C@H]3CCOC3)sc2C2CC2)ccc1F` [Compound 6, 2-cyclopropyl-N-(4-fluoro-3-methyl-phenyl)-5-[[(3S)-tetrahydrofuran-3-yl]sulfamoyl]thiophene-3-carboxamide]: 580 nM, 680 nM and over 25000 nM.
Regarding `Cc1cc(NC(=O)c2cc(S(=O)(=O)N[C@H]3CCOC3)sc2C)ccc1F` [Compound 7, N-(4-fluoro-3-methyl-phenyl)-2-methyl-5-[[(3S)-tetrahydrofuran-3-yl]-sulfamoyl]thiophene-3-carboxamide], the EC50 in the series with HBV [1] (setting [4]) was 170 nM; with HBV [3] (setting [5]) it was 160 nM. The CC50 at 4 days in series [2] is over 25000 nM.
The matching figures for `Cc1cc(NC(=O)c2cc(S(=O)(=O)N[C@H]3CCOC3)cs2)ccc1F` [Compound 8, N-(4-fluoro-3-methyl-phenyl)-4-[[(3S)-tetrahydrofuran-3-yl]sulfamoyl]thiophene-2-carboxamide]: 100 nM, 160 nM and over 25000 nM.
Take `Cc1cc(NC(=O)c2cc(S(=O)(=O)N[C@H]3CCOC3)c(C)s2)ccc1F` [Compound 9, N-(4-fluoro-3-methyl-phenyl)-5-methyl-4-[[(3S)-tetrahydrofuran-3-yl]-sulfamoyl]thiophene-2-carboxamide]: the EC50 in the series with HBV [1] (setting [4]) was 790 nM; with HBV [3] (setting [5]), 1100 nM. Besides, the half-maximal cytotoxic concentration (CC50) at 4 days in series [2] was over 25000 nM.
The matching figures for `Cc1cc(NC(=O)c2cc(S(=O)(=O)NC3(C)COC3)c(C)s2)ccc1F` [Compound 10, N-(4-fluoro-3-methyl-phenyl)-5-methyl-4-[(3-methyloxetan-3-yl)-sulfamoyl]thiophene-2-carboxamide]: 430 nM, 560 nM and over 25000 nM.
The matching figures for `Cc1cc(NC(=O)c2scc(S(=O)(=O)N[C@H]3CCOC3)c2C)ccc1F` [Compound 11, N-(4-fluoro-3-methyl-phenyl)-3-methyl-4-[[(3S)-tetrahydrofuran-3-yl]-sulfamoyl]thiophene-2-carboxamide]: 190 nM, 310 nM and over 25000 nM.
`Cc1cc(NC(=O)c2scc(S(=O)(=O)NC3(C)COC3)c2C)ccc1F` [Compound 12, N-(4-fluoro-3-methyl-phenyl)-3-methyl-4-[(3-methyloxetan-3-yl)-sulfamoyl]thiophene-2-carboxamide]: the concentration for a half-maximal effect (EC50) in the series on HBV [1] (setting [4]) is 160 nM; in the series on HBV [3] (setting [5]), 190 nM. Moreover, in series [2], the CC50 at 4 days was over 25000 nM.
The matching figures for `Cc1cc(NC(=O)c2ccc(S(=O)(=O)N[C@H]3CCOC3)s2)ccc1F` [Compound 13, N-(4-fluoro-3-methyl-phenyl)-5-[[(3S)-tetrahydrofuran-3-yl]-sulfamoyl]thiophene-2-carboxamide]: 1700 nM, 940 nM and over 25000 nM.
The matching figures for `CCc1sc(S(=O)(=O)N[C@H]2CCOC2)cc1C(=O)Nc1ccc(F)c(C)c1` [Compound 14, 2-ethyl-N-(4-fluoro-3-methyl-phenyl)-5-[[(3S)-tetrahydrofuran-3-yl]-sulfamoyl]thiophene-3-carboxamide]: 630 nM, 130 nM and over 25000 nM.
`Cc1cc(NC(=O)c2cc(S(=O)(=O)NC3(C)COC3)sc2C)ccc1F` [Compound 15, N-(4-fluoro-3-methyl-phenyl)-2-methyl-5-[(3-methyloxetan-3-yl)-sulfamoyl]thiophene-3-carboxamide]: the EC50 in the series with HBV [1] (setting [4]) was 27 nM; in the series with HBV [3] (setting [5]) it was 160 nM. The compound also showed a cytotoxic concentration (CC50) at 4 days in series [2] of over 25000 nM.
The corresponding values for `Cc1sc(S(=O)(=O)NC(C)(C)C)cc1C(=O)Nc1ccc(F)c(F)c1` [Compound 17, 5-(tert-butylsulfamoyl)-N-(3,4-difluorophenyl)-2-methyl-thiophene-3-carboxamide] are 120 nM, 130 nM and 11700 nM.
The corresponding values for `CC[C@@H](C)NS(=O)(=O)c1cc(C(=O)Nc2ccc(F)c(F)c2)c(C)s1` [Compound 18, N-(3,4-difluorophenyl)-2-methyl-5-[[(1R)-1-methylpropyl]sulfamoyl]thiophene-3-carboxamide] are 65 nM, 82 nM and 14600 nM.
`Cc1sc(S(=O)(=O)NC2(C)COC2)cc1C(=O)Nc1cc(F)c(F)c(Cl)c1` [Compound 19, N-(3-chloro-4,5-difluoro-phenyl)-2-methyl-5-[(3-methyloxetan-3-yl)-sulfamoyl]thiophene-3-carboxamide]: the figures for the EC50 with HBV [1] (setting [4]) and in the series on HBV [3] (setting [5]) were 63 nM and 100 nM, respectively. Further, in series [2], the CC50 at 4 days was over 25000 nM.
The corresponding values for `Cc1sc(S(=O)(=O)NC(C)(C)C)cc1C(=O)Nc1cc(F)c(F)c(Cl)c1` [Compound 20, 5-(tert-Butylsulfamoyl)-N-(3-chloro-4,5-difluorophenyl)-2-methylthiophene-3-carboxamide] are 170 nM, 110 nM and 15900 nM.
The corresponding values for `Cc1sc(S(=O)(=O)NC(C)(C)C)cc1C(=O)Nc1cccc(C(F)(F)F)c1` [Compound 21, 5-(tert-butylsulfamoyl)-2-methyl-N-[3-(trifluoromethyl)phenyl]thiophene-3-carboxamide] are 320 nM, over 1000 nM and 10500 nM.
The matching figures for `Cc1sc(S(=O)(=O)NC2(C)COC2)cc1C(=O)Nc1cccc(C(F)(F)F)c1` [Compound 22, 2-methyl-5-[(3-methyloxetan-3-yl)sulfamoyl]-N-[3-(trifluoromethyl)-phenyl]thiophene-3-carboxamide]: 250 nM, 230 nM and over 25000 nM.
As to `Cc1cc(NC(=O)c2cc(S(=O)(=O)NC(C)(C)C)sc2C)cc(F)c1F` [Compound 23, 5-(tert-Butylsulfamoyl)-N-(3,4-difluoro-5-methylphenyl)-2-methylthiophene-3-carboxamide], the concentration giving a half-maximal response (EC50) is 110 nM in the series on HBV [1] (setting [4]) and 32 nM with HBV [3] (setting [5]). For the same compound, it took 18100 nM to reach half-maximal cytotoxicity in series [2] (CC50 at 4 days).
The corresponding values for `Cc1sc(S(=O)(=O)NC(C)(C)C)cc1C(=O)Nc1ccc(F)c(C#N)c1` [Compound 24, 5-(tert-Butylsulfamoyl)-N-(3-cyano-4-fluorophenyl)-2-methylthiophene-3-carboxamide] are 120 nM, 150 nM and over 25000 nM.
In series [2], `Cc1sc(S(=O)(=O)NC(C)(C)C(F)(F)F)cc1C(=O)Nc1cc(F)c(F)c(Cl)c1` [Compound 40, N-(3-chloro-4,5-difluoro-phenyl)-2-methyl-5-[(2,2,2-trifluoro-1,1-dimethyl-ethyl)sulfamoyl]thiophene-3-carboxamide] yielded a cytotoxic concentration (CC50) at 4 days of over 25000 nM. The same compound displayed an EC50 in the series with HBV [3] (setting [5]) of 500 nM.
